Three compounds from US7560466B2, “Methods of treating or preventing autoimmune diseases with 2,4-pyrimidinediamine compounds” (Rigel Pharmaceuticals, Inc., priority 2003, dated 2009) can be followed below.

Where two headings read alike, the source gives them in different places. A value given as a limit tells only on which side of the number the result lay.

The target in one data set is T1, Syk kinase (Homo sapiens, UniProt P43405).
T1 construct: purchased Upstate, Lake Placid N.Y
Nature of the data set: Syk kinase biochemical fluorescence polarization assay. Conditions: isolated Syk kinase, 11pt, read-out: fp_syk, 11pt. On the procedure: Many of the 2,4-pyrimidinediamine compounds were tested for the ability to inhibit Syk kinase catalyzed phosphorylation of a peptide substrate in a biochemical fluorescenced polarization assay with isolated Syk kinase. In this experiment, Compounds were diluted to 1% DMSO in kinase buffer (20 mM HEPES, pH 7.4, 5 mM MgCl2, 2 mM MnCl2, 1 mM DTT, 0.1 mg/mL acetylated Bovine Gamma Globulin). Compound in 1% DMSO (0.2% DMSO final) was mixed with ATP/substrate solution at room temperature. Syk kinase (Upstate, Lake Placid N.Y.) was added to a final reaction volume of 20 uL, and the reaction was incubated for 30 minutes at room temperature. […] EDTA (10 mM final)/anti-phosphotyrosine antibody (1× final)/fluorescent phosphopeptide tracer (0.5× final) was added in FP Dilution Buffer to stop the reaction for a total volume of 40 uL according to manufacturer's instructions (PanVera Corporation) The plate was incubated for 30 minutes in the dark at room temperature. Plates were read on a Polarion fluorescence polarization plate reader (Tecan). Data were converted to amount of phosphopeptide present using a calibration curve generated by competition with the phosphopeptide competitor provided in the Tyrosine Kinase Assay Kit, Green (PanVera Corporation).
In Tabe 1, all reported values are IC50s (in μM).
On the technique in general: Polarisation of emitted light reports the rotation of a fluorescent probe.

Data set [1] can be described thus: Plasma concentration in RPA reaction study (satellite / exposure). The format is in vivo, mouse. To be noted: for concentration at 5 h: pretreatment 1 hr; for Exposure = Pretreatment Time + 4 hours Plasma Concentration ± SEM / concentration at 4.5 h: pretreatment 0.5 hrs. On the procedure: Pretreatment time, in which the test compounds are administered prior to Ab/Ag challenge, depends on the pharmacokinetic (PK) properties of each individual compound. Four hours after induction of Arthus reaction, mice are euthanized, and tissues are harvested for assessment of edema.
All compounds tested were administered by the oral route.

[2] abbreviates: C57BL/6, mouse, plasma, 5 mg/kg oral, read-out: Exposure = Pretreatment Time + 4 hours Plasma Concentration ± SEM.

With `Cn1c(N2CCOCC2)nc2cc(Nc3ncc(F)c(Nc4ccc5c(c4)NC(=O)C(C)(C)O5)n3)ccc21` [Compound 944, N4-(2,2-Dimethyl-3-oxo-4H-benz[1,4]oxazin-6-yl)-5-fluoro-N2-[1-methyl-2-(4-morpholino)benzimidazol-5-yl]-2,4-pyrimidinediamine], the IC50 on Syk kinase was under 10 µM. Moreover, the concentration at 5 h in data set [1] (C57BL/6, mouse, plasma, 2 mg/kg oral, read-out: Exposure = Pretreatment Time + 4 hours Plasma Concentration ± SEM) came out at 4.3 ± 4.2 ng/mL; in data set [1] (setting [2]), 3.5 ± 5.3 ng/mL; in data set [1] (C57BL/6, mouse, plasma, 15 mg/kg oral, read-out: Exposure = Pretreatment Time + 4 hours Plasma Concentration ± SEM), 29.7 ± 25.9 ng/mL.
`COc1c(C)cc(Nc2ncc(F)c(Nc3ccc4c(c3)NC(=O)C(C)(C)O4)n2)cc1Cl` [Compound 994]: the IC50 at Syk kinase is under 10 µM. The concentration at 5.5 h in data set [1] (C57BL/6, mouse, plasma, 100 mg/kg oral, 90 minutes pretreatment, read-out: Exposure = Pretreatment Time + 4 hours Plasma Concentration ± SEM) came to 44.2 ± 8.9 ng/mL. Besides, in data set [1] (C57BL/6, mouse, plasma, 100 mg/kg oral, 90 minutes pretreatment, read-out: Satellite: At time of challenge Plasma Concentration ± SEM), the concentration at 90 min worked out at 78.6 ± 26.4 ng/mL.
Turning to `COc1cc(Nc2ncc(F)c(Nc3ccc4c(n3)NC(=O)C(C)(C)O4)n2)cc(OC)c1OC` [Compound 1007, N4-(2,2-Dimethyl-3-oxo-4H-5-pyrid[1,4]oxazin-6-yl)-5-fluoro-N2-(3,4,5-trimethoxyphenyl)-2,4-pyrimidinediamine], the “Exposure = Pretreatment Time + 4 hours Plasma Concentration ± SEM” value in data set [1] (0.1 mg/kg oral) and in data set [1] (0.5 mg/kg oral) was “BLQ” in each case. In addition, the concentration at 4.5 h was determined as 2.3 ± 0.9 ng/mL in data set [1] (C57BL/6, mouse, plasma, 1 mg/kg oral, read-out: Exposure = Pretreatment Time + 4 hours Plasma Concentration ± SEM) and 19.8 ± 15.7 ng/mL in data set [1] (setting [2]).
